Like-named read-outs stand apart in the source and are kept apart here.
Columns and labels:
Assay type in all cases: biochemical
[1] = tested on: creatine kinase (CK) in human serum; assay: CK activity measured with enzyme solutions containing SH compounds as CK reactivator, fresh and after 1 month of storage (Example 1 / Comparative Example 1); conditions: for CK activity value, Average: average of 5 samples; for CK activity, relative value: NAC just after preparation = 100%
Description: The resulting solution was adjusted to pH 6.7 with sodium hydroxide and stored at a predetermined temperature for a predetermined period. The thus obtained solution were used as enzyme solutions.
(§1) Five fresh human serum samples were used.
(§2) To 8 μl of each sample was added 320 μl of each enzyme solution, followed by preincubation for 5 minutes. Then, 80 μl of the substrate solution was added to initiate the reaction and the change of absorbance per minute was measured for 3 minutes from 2 minutes after the addition of the substrate solution. The CK activity value was calculated from the molecular extinction coefficient of the NADPH produced.
(§3) As a measuring apparatus, an Autoanalyzer Hitachi Model 7150 was used, and the measurement was carried out at 37° C. by use of dual wavelength (λ1 =405 nm, λ2 =340 nm).
Enzyme solutions were prepared in the same manner as in Example 1 by use of the same reagents as in Example 1 except for using a predetermined concentration(s) of one or two SH compounds properly selected from the above-mentioned CK reactivators, in place of the CK reactivator(s) used in Example 1.
CK activity was measured in the same manner as in Example 1.

[2] = tested on: creatine kinase (CK) in human serum; assay: CK activity measured with enzyme and substrate solutions stored at 10° C. for up to 7 months (Example 2 / Comparative Example 2); conditions: for relative value of CK activity: enzyme solution prepared at the time of use = 100%
Description: An enzyme solution was prepared in the same manner as in Example 1 by use of the same reagents as in Example 1 except for using 100 mM of TG in place of the CK reactivator(s) used in Example 1.
Different 10 fresh human serum samples were used for different measuring operations.
CK activity was measured by the same procedure as described in Example 1 except for using the above-mentioned enzyme solution and substrate solution, both solutions stored at 10° C. for a predetermined time, and each of the above-mentioned samples.
An enzyme solution was prepared in the same manner as in Example 1 by use of the same reagents as in Example 1 except for using 26 mM of NAC in place of the CK reactivator(s) used in Example 1.
CK activity was measured by the same procedure as described in Example 1 except for using the above-mentioned enzyme solution and substrate solution, both solutions stored at 10° C. for a predetermined period, and each of the above-mentioned samples.

[3] = molecular target: T1, creatine kinase (CK) in human serum (Homo sapiens, UniProt P06732); assay: Inhibitory effect of oxidized products of SH compounds on CK activity (HK/G6PDH UV method, NAC 26 mM as reactivator); conditions: for CK activity value / CK activity value, Average: 5 mM SH compound oxidized product; for CK activity value: NAC 26 mM, 37° C.; for CK activity value, Average: average of 5 samples; for activity at 5000 µM: read-out: CK activity, relative value
T1 construct: Five fresh human serum samples were used; from tissue; host or cells: fresh human serum
Description: Investigation on the inhibitory effect of oxidized products of SH compounds on CK activity
Thus, oxidized products of the SH compounds, respectively, were obtained.
NAC (26 mM) as CK reactivator, each 5 mM of SH compound oxidized product obtained above, 2.6 mM of ADP, 3.9 u/ml of HK (available from Oriental Yeast Co., Ltd.), 8.0 u/ml of G6PDH (available from Oriental Yeast Co., Ltd.), 2.6 mM of NADP, 21 mM of glucose, 10 mM of magnesium acetate, 6.5 mM of AMP, 0.013 mM of APSA, 0.1% (w/v) of sodium azide and 2 mM of EDTA-2Na were dissolved in 128 mM imidazole-acetate buffer (pH 6.7). The thus obtained solutions were adjusted to pH 6.7 with sodium hydroxide to obtain enzyme solutions.
An enzyme solution containing no SH compound oxidized product was prepared as a control standard solution.
as §1, §2, §3
Tables 2 and 3 show the CK activity values of the 5 samples in each case and the average thereof.

[4] = Sample 1, enzyme solution just after preparation, TG 100 mM, 2ME 26 mM, 2MES 26 mM, NAC 26 mM
[5] = Sample 1, enzyme solution stored at 10° C. for 1 month, TG 100, 2ME 26, 2MES 26, NAC 26, L-cysteine 6.5, GSH 12, TDG 5, DTT 6.5 mM
[6] = Sample 1, enzyme solution stored at 20° C. for 1 month, TG 100, 2ME 26, 2MES 26, NAC 26, L-cysteine 6.5, GSH 12, TDG 5, DTT 6.5 mM
[7] = Sample 2, enzyme solution just after preparation, TG 100 mM, 2ME 26 mM, 2MES 26 mM, NAC 26 mM
[8] = Sample 2, enzyme solution stored at 10° C. for 1 month, TG 100, 2ME 26, 2MES 26, NAC 26, L-cysteine 6.5, GSH 12, TDG 5, DTT 6.5 mM
[9] = Sample 2, enzyme solution stored at 20° C. for 1 month, TG 100, 2ME 26, 2MES 26, NAC 26, L-cysteine 6.5, GSH 12, TDG 5, DTT 6.5 mM
[10] = Sample 3, enzyme solution just after preparation, TG 100 mM, 2ME 26 mM, 2MES 26 mM, NAC 26 mM
[11] = Sample 3, enzyme solution stored at 10° C. for 1 month, TG 100, 2ME 26, 2MES 26, NAC 26, L-cysteine 6.5, GSH 12, TDG 5, DTT 6.5 mM
[12] = Sample 3, enzyme solution stored at 20° C. for 1 month, TG 100, 2ME 26, 2MES 26, NAC 26, L-cysteine 6.5, GSH 12, TDG 5, DTT 6.5 mM
[13] = Sample 4, enzyme solution just after preparation, TG 100 mM, 2ME 26 mM, 2MES 26 mM, NAC 26 mM
[14] = Sample 4, enzyme solution stored at 10° C. for 1 month, TG 100, 2ME 26, 2MES 26, NAC 26, L-cysteine 6.5, GSH 12, TDG 5, DTT 6.5 mM
[15] = Sample 4, enzyme solution stored at 20° C. for 1 month, TG 100, 2ME 26, 2MES 26, NAC 26, L-cysteine 6.5, GSH 12, TDG 5, DTT 6.5 mM
[16] = Sample 5, enzyme solution just after preparation, TG 100 mM, 2ME 26 mM, 2MES 26 mM, NAC 26 mM
[17] = Sample 5, enzyme solution stored at 10° C. for 1 month, TG 100, 2ME 26, 2MES 26, NAC 26, L-cysteine 6.5, GSH 12, TDG 5, DTT 6.5 mM
[18] = Sample 5, enzyme solution stored at 20° C. for 1 month, TG 100, 2ME 26, 2MES 26, NAC 26, L-cysteine 6.5, GSH 12, TDG 5, DTT 6.5 mM
[19] = enzyme solution just after preparation, TG 100 mM, 2ME 26 mM, 2MES 26 mM, NAC 26 mM
[20] = enzyme solution stored at 10° C. for 1 month, TG 100, 2ME 26, 2MES 26, NAC 26, L-cysteine 6.5, GSH 12, TDG 5, DTT 6.5 mM
[21] = enzyme solution stored at 20° C. for 1 month, TG 100, 2ME 26, 2MES 26, NAC 26, L-cysteine 6.5, GSH 12, TDG 5, DTT 6.5 mM
[22] = enzyme solution just after preparation
[23] = enzyme solution stored at 10° C. for 1 month
[24] = enzyme solution stored at 20° C. for 1 month
[25] = enzyme solution prepared at the time of use, 1 month measurement, 10 samples
[26] = enzyme solution prepared at the time of use, 3 month measurement, 10 samples
[27] = enzyme solution prepared at the time of use, 6 month measurement, 10 samples
[28] = enzyme solution prepared at the time of use, 7 month measurement, 10 samples
[29] = just after preparation, average of 10 human serum samples, TG 100 mM or NAC 26 mM
[30] = solutions stored at 10° C. for 1 month, 10 samples
[31] = solutions stored at 10° C. for 3 month, 10 samples
[32] = solutions stored at 10° C. for 6 month, 10 samples
[33] = solutions stored at 10° C. for 7 month, 10 samples
[34] = average with enzyme solution containing no SH compound oxidized product = 100%, 5 mM oxidized product

T1 sequence (P06732 whole entry): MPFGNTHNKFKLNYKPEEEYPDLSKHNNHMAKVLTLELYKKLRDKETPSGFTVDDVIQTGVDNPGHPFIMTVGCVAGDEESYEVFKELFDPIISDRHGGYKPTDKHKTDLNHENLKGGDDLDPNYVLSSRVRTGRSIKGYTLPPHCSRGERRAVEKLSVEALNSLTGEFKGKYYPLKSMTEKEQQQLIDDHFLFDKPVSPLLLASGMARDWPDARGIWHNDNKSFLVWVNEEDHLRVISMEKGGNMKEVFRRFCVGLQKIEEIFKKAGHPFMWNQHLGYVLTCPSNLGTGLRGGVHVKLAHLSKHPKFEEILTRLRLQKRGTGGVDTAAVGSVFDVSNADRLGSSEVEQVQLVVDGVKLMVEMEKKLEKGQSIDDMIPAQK

CC(=O)N[C@@H](CS)C(=O)O [NAC, N-acetylcysteine]
CK activity value [1, 4]: 183 IU/l | CK activity value [1, 5]: 184 IU/l | CK activity value [1, 6]: 166 IU/l | CK activity value [1, 7]: 544 IU/l | CK activity value [1, 8]: 550 IU/l | CK activity value [1, 9]: 499 IU/l | CK activity value [1, 10]: 151 IU/l | CK activity value [1, 11]: 152 IU/l | CK activity value [1, 12]: 136 IU/l | CK activity value [1, 13]: 56 IU/l | CK activity value [1, 14]: 55 IU/l | CK activity value [1, 15]: 50 IU/l | CK activity value [1, 16]: 87 IU/l | CK activity value [1, 17]: 88 IU/l | CK activity value [1, 18]: 78 IU/l | CK activity value, Average [1, 19]: 204 IU/l | CK activity value, Average [1, 20]: 206 IU/l | CK activity value, Average [1, 21]: 186 IU/l | CK activity, relative value [1, 22]: 100.0% | CK activity, relative value [1, 23]: 101.0% | CK activity, relative value [1, 24]: 91.2% | measured value of CK activity after storage ([2]; after 3 months of storage at 10° C.): markedly lowered | average of CK activity values [2, 25]: 196 IU/l. | average of CK activity values [2, 26]: 192 IU/l. | average of CK activity values [2, 27]: 162 IU/l. | average of CK activity values [2, 28]: 192 IU/l. | average of CK activity values [2, 29]: 234 IU/l. | average of CK activity values [2, 30]: 190 IU/l. | average of CK activity values [2, 31]: 146 IU/l. | average of CK activity values [2, 32]: 64 IU/l. | average of CK activity values [2, 33]: 62 IU/l. | relative value of CK activity ([2]; stored at 10° C. for 1 month): 96.9% | relative value of CK activity ([2]; stored at 10° C. for 3 month): 76.0% | relative value of CK activity ([2]; stored at 10° C. for 6 month): 39.5% | relative value of CK activity ([2]; stored at 10° C. for 7 month): 32.3%

OC[C@H]1O[C@@H](SS[C@@H]2O[C@H](CO)[C@@H](O)[C@H](O)[C@H]2O)[C@H](O)[C@@H](O)[C@@H]1O [TDG oxidized product]
inhibition of CK activity by oxidized product ([3]; 5 mM oxidized product): hardly inhibited CK activity | CK activity value ([3]; Sample 1 (fresh human serum)): 136 IU/l. | CK activity value ([3]; Sample 2): 388 IU/l. | CK activity value ([3]; Sample 3): 102 IU/l. | CK activity value ([3]; Sample 4): 302 IU/l. | CK activity value ([3]; Sample 5): 90 IU/l. | CK activity value, Average [3]: 204 IU/l. | activity at 5000 µM [3, 34]: 90.2%

OCC(O)CSSCC(O)CO (stereo not shown) [TG oxidized product]
inhibition of CK activity by oxidized product ([3]; 5 mM oxidized product): hardly inhibited CK activity | CK activity value ([3]; Sample 1 (fresh human serum)): 153 IU/l. | CK activity value ([3]; Sample 2): 422 IU/l. | CK activity value ([3]; Sample 3): 112 IU/l. | CK activity value ([3]; Sample 4): 333 IU/l. | CK activity value ([3]; Sample 5): 106 IU/l. | CK activity value, Average [3]: 226 IU/l. | activity at 5000 µM [3, 34]: 100%

OCC(O)CS (stereo not shown) [TG, thioglycerol]
retaining CK-reactivating ability for a long period of time in an aqueous solution [1]: capable of retaining CK-reactivating ability for a long period of time | CK activity value [1, 4]: 184 IU/l | CK activity value [1, 5]: 183 IU/l | CK activity value [1, 6]: 180 IU/l | CK activity value [1, 7]: 553 IU/l | CK activity value [1, 8]: 556 IU/l | CK activity value [1, 9]: 549 IU/l | CK activity value [1, 10]: 151 IU/l | CK activity value [1, 11]: 154 IU/l | CK activity value [1, 12]: 152 IU/l | CK activity value [1, 13]: 58 IU/l | CK activity value [1, 14]: 57 IU/l | CK activity value [1, 15]: 57 IU/l | CK activity value [1, 16]: 88 IU/l | CK activity value [1, 17]: 88 IU/l | CK activity value [1, 18]: 88 IU/l | CK activity value, Average [1, 19]: 207 IU/l | CK activity value, Average [1, 20]: 208 IU/l | CK activity value, Average [1, 21]: 206 IU/l | CK activity, relative value [1, 22]: 101.4% | CK activity, relative value [1, 23]: 101.9% | CK activity, relative value [1, 24]: 100.9% | average of CK activity values [2, 25]: 204 IU/l. | average of CK activity values [2, 26]: 200 IU/l. | average of CK activity values [2, 27]: 168 IU/l. | average of CK activity values [2, 28]: 192 IU/l. | average of CK activity values [2, 29]: 240 IU/l. | average of CK activity values [2, 30]: 202 IU/l. | average of CK activity values [2, 31]: 198 IU/l. | average of CK activity values [2, 32]: 168 IU/l. | average of CK activity values [2, 33]: 190 IU/l. | relative value of CK activity ([2]; stored at 10° C. for 1 month): 99.0% | relative value of CK activity ([2]; stored at 10° C. for 3 month): 99.0% | relative value of CK activity ([2]; stored at 10° C. for 6 month): 100.0% | relative value of CK activity ([2]; stored at 10° C. for 7 month): 99.0%

c1ccc(SSc2ccccc2)cc1 [Thiophenol oxidized product]
CK activity value ([3]; Sample 1 (fresh human serum)): 73 IU/l. | CK activity value ([3]; Sample 2): 180 IU/l. | CK activity value ([3]; Sample 3): 55 IU/l. | CK activity value ([3]; Sample 4): 139 IU/l. | CK activity value ([3]; Sample 5): 50 IU/l. | CK activity value, Average [3]: 99 IU/l. | activity at 5000 µM [3]: 44.1%

Mercapto-succinic acid
CK activity value ([3]; Sample 1 (fresh human serum)): 122 IU/l. | CK activity value ([3]; Sample 2): 330 IU/l. | CK activity value ([3]; Sample 3): 98 IU/l. | CK activity value ([3]; Sample 4): 285 IU/l. | CK activity value ([3]; Sample 5): 80 IU/l. | CK activity value, Average [3]: 183 IU/l. | CK activity, relative value [3, 34]: 81.0%
